According to PMC6341489 (2016):

Test system: 2-AP-labeled miR-21-hp RNA (RNA, miRNA, 2-aminopurine at 15 (replaces A15)) GGGUUGACUGUUGAAUCUCAUGGCAACCC
Assay: 2-aminopurine fluorescence titration
Settings: 137 mM NaCl, 3 mM KCl; apparent; PBS pH 7.4, 10% DMSO, RT, 2 μM RNA

OC(CNc1ccccc1)Cn1c2ccc(Br)cc2c2cc(Br)ccc21 (stereo not shown)
Kd: 3.2 ± 0.7 µM
